Laboratory results taken from patent publication US9475842B2, “Hexadepsipeptide analogues as anticancer compounds” (PIRAMAL ENTERPRISES LIMITED, priority 2012, dated 2016).

Key:
Assay in all cases: Monolayer assay (CCK-8 cytotoxicity)
G361 (Melanoma) = type: cell-based; settings: Homo sapiens, G-361, 24 hrs exposure
Procedure: (§1) The assays were designed as in the reference, BMC Cancer, 2010, 10, 610, 1-11; the disclosure of which is incorporated by reference for the teaching of the assay.
(§2) Human tumour cell lines: Panc-1 (Pancreatic Cancer), HCT 116 (Colorectal Cancer), ACHN (Renal Cell Carcinoma), Calu-1 (Lung Carcinoma), MiaPaca2 (Pancreatic Cancer), FADU (Head and Neck Cancer), PC3 (prostate Cancer), G361 (Melanoma), MDA-MB435S (Melanoma), HeLa (Cervical Cancer) were grown in Minimal Essential Media with Eagle's Basal Salts (MEM-EBS) obtained from AMIMED (BioConcept-Switzerland). Tumour cell lines: MDA-MB231 (Breast Cancer), JURKAT (T cell leukaemia), H460 (Small Cell Lung Cancer) were cultured in RPMI 1640 (AMIMED, BioConcept, Switzerland) medium. All tumour cell lines were supplemented with 10% Foetal Bovine Serum (FBS) (GIBCO), 1% Penicillin/Streptomycin (Sigma) and 1% Anti-Anti (GIBCO) and grown in T-175 tissue culture flasks (Nunc). MCF-10A, a non-tumourigenic cell line, was cultured in Mammary Epithelial Basal Medium (MEBM) with all standard additions (Lonza, Catalog. No. CC-3150). All cells were grown in 5% CO2 incubator at 37° C. Cells were passaged at 80-90% confluence. Adherent cells were trypsinised using Trypsin-EDTA (Sigma) and maintained. All cell lines were purchased from ATCC (Rockville, Md., USA).
(§3) Compound of Formula (1a) [described in example 7] was dissolved in DMSO to give a required stock solution of 20 mM. Eight different concentrations of the compound of Formula (1a) were prepared by serial dilution of stock solution finally resulting in a (compared to the test concentration) 200-fold higher concentration. Compound of Formula (1a) was tested at the concentration of 0.0001 μM, 0.001 μM, 0.01 μM, 0.03 μM, 0.1 μM, 0.3 μM, 1 μM and 3 μM respectively. Each concentration was evaluated in triplicate.
(§4) Method for determination of IC50 of the compound of Formula (1a): • a) Different cancer/normal cells were seeded at a density of 3000 cells/200 μL well, in a tissue culture grade 96 well plate and allowed them to recover for 24 hrs in a humidified 5±0.2% CO2 incubator at 37±0.5° C. • b) After 24 hrs, 1 μL of 200× (200 times higher than required concentration is denoted as 200×) compound of Formula (1a), dissolved in DMSO, was added to the above tissue culture plate seeded with cancer/normal cells. The final concentration of DMSO was 0.5% in wells. DMSO was used as a vehicle control. • c) After 24 hrs the plate was removed from CO2 incubator and 5 μL of CCK-8 (Dojindo Molecular Technologies, Inc. USA, catalog, no. CK04-20) per well was added. • d) The plate was then placed at 37° C. for 2 hrs. • e) The absorbance was recorded at 450 nm. • f) The percent cytotoxicity was calculated using the following formula
(§5) The IC50 value was estimated by visual inspection of the concentration-effect curve. For calculation of mean IC50 values over the fourteen cell lines as tested, the geometric mean was selected.

[1] = system: JURKAT (T cell leukaemia); type: cell-based; settings: Homo sapiens, 24 hrs exposure
Procedure: as §1, §2, §3, §4, §5

HeLa (Cervical Cancer) = type: cell-based; settings: Homo sapiens, 24 hrs exposure
Procedure: as §1, §2, §3, §4, §5

MDA-MB435S (Melanoma) = type: cell-based; settings: Homo sapiens, MDA-MB-435S, MDAMB435S, 24 hrs exposure
Procedure: as §1, §2, §3, §4, §5

Calu-1 (Lung Carcinoma) = type: cell-based; settings: Homo sapiens, 24 hrs exposure
Procedure: as §1, §2, §3, §4, §5

[2] = system: Panc-1 (Pancreatic Cancer); type: cell-based; settings: Homo sapiens, 24 hrs exposure
Procedure: as §1, §2, §3, §4, §5

[3] = system: ACHN (Renal Cell Carcinoma); type: cell-based; settings: Homo sapiens, 24 hrs exposure
Procedure: as §1, §2, §3, §4, §5

[4] = system: FADU (Head and Neck Cancer); type: cell-based; settings: Homo sapiens, 24 hrs exposure
Procedure: as §1, §2, §3, §4, §5

H460 = type: cell-based; settings: Homo sapiens, NCI-H460, H460, Non Small Cell Lung, 24 hrs exposure
Procedure: as §1, §2, §3, §4, §5

[5] = system: MDA-MB231 (Breast Cancer); type: cell-based, human; settings: Homo sapiens, MDA-MB-231; MDAMB231, Breast; 24 hrs exposure, CCK-8; read-out: IC50
Procedure: as §1, §2, §3, §4, §5
(§6) The assays were designed as described above in example 16.
(§7) The IC50 value was estimated by visual inspection of the concentration-effect curve. For calculation of mean IC50 values over the six cell lines (PC3, MDA MB, HCT116, MCF7, MIAPaCa2, MCF10A) as tested, the geometric mean was selected.

[6] = system: HCT 116 (Colorectal Cancer); type: cell-based, human; settings: Homo sapiens, HCT-116; HCT116, Colon; 24 hrs exposure, CCK-8; read-out: IC50
Procedure: as §1, §2, §3, §4, §5, §6, §7

PC3 (prostate Cancer) = type: cell-based, human; settings: Homo sapiens; PC3, Prostate; 24 hrs exposure, CCK-8; read-out: IC50
Procedure: as §1, §2, §3, §4, §5, §6, §7

SMILES: CC(C)CC1CCC(O)(C(C)(O)C(=O)NC2C(=O)N3NCCCC3C(=O)N(O)C(C)C(=O)NCC(=O)N3NCCCC3C(=O)N(O)C(C)C(=O)OC2C(C)C)OC1C (stereo not drawn) [Formula (1a), N-(6,18-dihydroxy-22-isopropyl-7,19-dimethyl-5,8,11,17,20,24-hexaoxotetracosa hydrodipyridazino[6,1-f:6′,1′-o][1,4,7,10,13,16]oxapentaazacyclononadecin-23-yl)-2-hydroxy-2-(2-hydroxy-5-isobutyl-6-methyltetrahydro-2H-pyran-2-yl)propanamide]
- IC50 (G361 (Melanoma)): 24.1 ± 4.3 nM
- IC50 [1]: 15.9 ± 2.6 nM
- IC50 (HeLa (Cervical Cancer)): 10.1 ± 3.1 nM
- IC50 (MDA-MB435S (Melanoma)): 2.9 ± 0.48 nM
- IC50 (Calu-1 (Lung Carcinoma)): 25.2 ± 3.5 nM
- IC50 [2]: 1.3 ± 0.32 nM
- IC50 [3]: 7.1 ± 0.64 nM
- IC50 [4]: 22.4 ± 1.2 nM
- IC50 (H460): 9.2 ± 0.76 nM
- IC50 [5]: 6.1 ± 0.52 nM
- IC50 [6]: 15.1 ± 2.3 nM
- IC50 (PC3 (prostate Cancer)): 5.2 ± 0.41 nM
